Data from patent publication US11186534B2, “Derivatives of sulindac can protect normal cells against oxidative damage” (University of South Alabama, priority 2017, dated 2021).

How the values were obtained:
[1] = system: rat intact hearts (Langendorff model); experiment: Langendorff model of ischemia/reperfusion injury, infarct size by TTC staining; type: in vivo, Sprague Dawley rats; conditions: 45 min ischemia and 2 h reperfusion; 0.7 mg/kg daily for 48 h; FIG. 8
Protocol: The ex vivo Langendorff procedure is a well-established preparation used to investigate heart physiology, ischemia/reperfusion injury, and other cardiovascular insults (23, 24; also see, e.g., reference 22). Sprague Dawley rats (275-325g) were administered either no drug or Compound 9 daily (at 0.7 mg/kg) for a total of two days (two administrations in total). Forty-eight hours after the start of drug exposure, hearts were removed and exposed to 45 min no flow ischemia and 2 h reperfusion in the Langendorff model (hearts were first equilibrated in KHB buffer for 10 min and then subjected to 45 min ischemia followed by 2 h reperfusion with KHB buffer), in the absence of drug.
In LDH and TTC assays for the Langendorff Preparation, coronary effluent samples (500 μL) from the Langendorff preparation were obtained upon attachment of excised heart, every 15 min before ischemia, immediately after 45 min ischemia, and at 15 min intervals during reperfusion. LDH was measured (using a Cytotox-96 nonradioactive cytotoxicity assay kit (Promega), with the absorbance read at 490 nm). […]
The protective (preconditioning) effect of Compound 9 was evaluated in an art-recognized Langendorff model of ischemia/reperfusion injury. […]

human recombinant COX-2 = target: T1, human recombinant COX-2 (Homo sapiens, UniProt P35354); experiment: COX Fluorescent Inhibitor Screening assay, COX-2; type: biochemical; conditions: FIG. 4B
T1 construct: purchased Cayman Chemical 700100
T1 sequence (P35354 18-604): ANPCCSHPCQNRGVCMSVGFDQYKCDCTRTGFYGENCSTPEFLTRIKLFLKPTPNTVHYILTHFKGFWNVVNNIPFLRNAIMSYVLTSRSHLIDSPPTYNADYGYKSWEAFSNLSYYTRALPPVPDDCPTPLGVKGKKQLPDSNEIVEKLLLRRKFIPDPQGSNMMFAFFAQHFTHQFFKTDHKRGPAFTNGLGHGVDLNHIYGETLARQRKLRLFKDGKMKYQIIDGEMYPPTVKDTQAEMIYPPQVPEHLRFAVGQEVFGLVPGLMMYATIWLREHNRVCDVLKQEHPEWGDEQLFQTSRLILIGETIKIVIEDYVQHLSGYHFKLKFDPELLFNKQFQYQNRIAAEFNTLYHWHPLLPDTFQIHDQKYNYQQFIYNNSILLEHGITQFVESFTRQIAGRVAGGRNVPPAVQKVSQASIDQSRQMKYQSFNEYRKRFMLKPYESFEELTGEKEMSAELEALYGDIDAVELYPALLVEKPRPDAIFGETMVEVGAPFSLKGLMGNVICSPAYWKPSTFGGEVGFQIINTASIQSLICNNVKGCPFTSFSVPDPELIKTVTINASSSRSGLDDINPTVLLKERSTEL
Protocol: (§1) Compounds were assayed for cyclooxygenase (COX) inhibition using the COX Fluorescent Inhibitor Screening Kit from Cayman Chemical (Item #: 700100). Briefly, COX enzyme (ovine COX-1 or human recombinant COX-2) diluted in 1× reaction buffer is incubated with the compound or DMSO control for 20 min at 25° C. in a half-area 96-well black microplate. Background wells are also included that contained no enzyme. Added to each well were heme B, to ensure enzyme activity, and 10-acetyl-3,7-dihydroxyphenoxazine (ADHP) assay reagent. After the 20 min incubation, arachidonic acid (AA) substrate was added to all wells. As shown by the schematic diagram below, active COX enzyme converts AA to hydroperoxy endoperoxide (PGG2). Catalyzed by the secondary peroxidase activity of COX, ADHP can react with PGG2 to form a highly fluorescent compound, resorufin. Fluorescence was measured with a […] excitation wavelength and a 585-595 nm emission wavelength. Decreased fluorescence relative to the DMSO control indicates COX inhibition. See, also, Piazza G A, Keeton A B, Tinsley H N, Gary B D, Whitt J D, Mathew B, Thaiparambil J, Coward L, Gorman, G, Li Y, Sani B, Hobrath J V, Maxuitenko Y Y and Reynolds R C. […] Cancer Prevention Research 2009; 2: 572-580.

ovine COX-1 = target: T2, ovine COX-1 (Ovis aries, UniProt P05979); experiment: COX Fluorescent Inhibitor Screening assay, COX-1; type: biochemical; conditions: FIG. 4A
T2 construct: purchased Cayman Chemical 700100
T2 sequence (P05979 25-600): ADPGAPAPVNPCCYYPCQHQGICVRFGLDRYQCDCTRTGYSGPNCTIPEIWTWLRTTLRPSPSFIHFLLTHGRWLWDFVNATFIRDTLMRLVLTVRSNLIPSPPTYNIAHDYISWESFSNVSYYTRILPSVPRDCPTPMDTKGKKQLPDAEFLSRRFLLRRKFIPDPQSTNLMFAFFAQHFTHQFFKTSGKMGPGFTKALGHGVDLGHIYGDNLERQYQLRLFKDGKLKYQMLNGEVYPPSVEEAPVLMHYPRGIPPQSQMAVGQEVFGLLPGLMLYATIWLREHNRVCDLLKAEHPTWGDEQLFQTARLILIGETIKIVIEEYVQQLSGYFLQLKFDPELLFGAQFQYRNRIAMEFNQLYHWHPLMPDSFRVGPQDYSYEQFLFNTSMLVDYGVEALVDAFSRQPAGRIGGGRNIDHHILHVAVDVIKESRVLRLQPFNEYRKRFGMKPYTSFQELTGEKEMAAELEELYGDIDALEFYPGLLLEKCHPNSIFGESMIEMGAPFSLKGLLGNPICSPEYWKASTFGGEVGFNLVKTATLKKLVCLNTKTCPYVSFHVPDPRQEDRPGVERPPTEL
Protocol: as §1

COc1cc2c(cc1OC)/C(=C\c1cc(OC)c(OC)c(OC)c1)C(C)=C2CC(=O)O [Compound 9, (Z)-2-(5,6-dimethoxy-2-methyl-1-(3,4,5-trimethoxybenzylidene)-1H-inden-3-yl)acetic acid]
Infarction size (percent of heart infarcted, TTC staining) [1]: below 20%
COX-2 inhibition: fold less potent than celecoxib (human recombinant COX-2): approximately 1000 ×
COX-1 inhibition: fold less potent than sulindac sulfide (SS) (ovine COX-1): ≥ 20 ×
